Assay results: PMC10101016, “The Photoactive Photosynthetic Reaction Center of a Rhodobacter sphaeroides Mutant Lacking 3-Vinyl (Bacterio)Chlorophyllide a Hydratase Contains 3-Vinyl Bacteriochlorophyll a” (Microbiology Spectrum, 2023)
Like-named read-outs stand apart in the source and are kept apart here.

Biological target: T1, reaction center (WT-RC, V-RC) (Cereibacter sphaeroides, UniProt Q3J1A5+Q3J1A6)
T1 construct: gene pufL

## C=Cc1c(C)c2cc3nc(c4c5[nH]c(cc6nc(cc1[nH]2)[C@H](C)[C@H]6CC)c(C)c5C(=O)[C@@H]4C(=O)OC)[C@@H](CCC(=O)OC/C=C(\C)CCC[C@H](C)CCC[C@H](C)CCCC(C)C)[C@@H]3C [3V-Bpheo a]
V-RC from BFcfh-puhA, H-sites
  pigment extraction and HPLC of purified RC, absorption spectrum: The V-RC was estimated to contain four 3V-Bchl a molecules, two 3V-Bpheo a molecules

## COC(C)(C)C(=O)/C=C/C(C)=C/C=C/C(C)=C/C=C/C(C)=C/C=C/C=C(C)/C=C/C=C(\C)CC/C=C(\C)CCC=C(C)C [SO]
WT-RC and V-RC, semiaerobically grown cells
  pigment extraction and HPLC of purified RC, absorption spectrum: two Bpheo a molecules, and one spheroidenone (SO) molecule

## COC(C)(C)C/C=C/C(C)=C/C=C/C(C)=C/C=C/C(C)=C/C=C/C=C(C)/C=C/C=C(\C)CC/C=C(\C)CCC=C(C)C [SE]
WT-RC and V-RC, photoheterotrophically grown cells
  pigment extraction and HPLC of purified RC, absorption spectrum: except for the presence of spheroidene (SE), which reflects the culture conditions
